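The compound was tested at five concentrations on cells cultured in 96-well plates, with a 48-hour exposure period. The concentration for 50% growth inhibition is given as GI50.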 The source made the active and inactive calls. Cut-off read from the data, not from the text of the source: active = GI50 up to about 1.1 µM and inactive = higher.

Among the test systems are A549; HCT-15; HL-60; IGROV-1; KM-20L2; M14; OVCAR-3; RPMI-8226; SF-268; SF-539; SK-MEL-28; SNB-75; SR; TK-10; UACC-257; UACC-62; UO-31; A498.
What all share (experiment): growth of human tumour cells (NCI), 48 h

`CCOC(=O)C1C(=O)c2cccc(OC)c2C2COC(=O)N12` (centres undefined): the GI50 in the test on A549 is > 100 µM (inactive); in the test on HCT-15, more than 100 µM; in the test with HL-60, > 100 µM (inactive); in the test with IGROV-1, > 100 µM (inactive); in the test with KM-20L2, > 100 µM (inactive); in the test on M14, > 100 µM (inactive). Further, the GI50 with OVCAR-3, with RPMI-8226, with SF-268, in the test on SF-539, in the test on SK-MEL-28 and in the test on SNB-75 was > 100 µM (inactive) throughout. Besides, the GI50 with SR, with TK-10, in the test on UACC-257, with UACC-62 and with UO-31 was > 100 µM (inactive) in each case.

For the compound `CC1/C=C/[C@@]2(C)CCC(C(C)(C)O)C2C(O)C[C@](C)(O)/C=C/C1` (some centres undefined), the GI50 is > 100 µM (inactive) in the test with A498; > 100 µM (inactive) in the test with A549; more than 100 µM in the test with HCT-15; 86.1 µM (inactive) with HL-60; > 100 µM (inactive) in the test on IGROV-1; > 100 µM (inactive) in the test on KM-20L2. The GI50 in the test with M14, with OVCAR-3, in the test with RPMI-8226, in the test on SF-268, with SF-539 and with SK-MEL-28 was > 100 µM (inactive) each time. Moreover, the GI50 with SNB-75 was > 100 µM (inactive); with SR it was 66.5 µM (inactive); in the test on TK-10 it was > 100 µM (inactive); with UACC-257 it was > 100 µM (inactive); in the test on UACC-62, > 100 µM (inactive); in the test with UO-31 it was > 100 µM (inactive).

As to `[O-][n+]1c2cc(CBr)c(CBr)cc2[n+]([O-])c2c(O)cccc21`, the GI50 was 12.5 µM (inactive) with A498; 3.1 µM (inactive) with A549; 1.56 µM with HCT-15; 0.388 µM (active) with HL-60; 4.02 µM (inactive) in the test on IGROV-1; 3.07 µM (inactive) with KM-20L2. In addition, the GI50 with M14 was 1.75 µM (inactive); in the test on OVCAR-3, 2.22 µM (inactive); with RPMI-8226, 1.53 µM (inactive); in the test with SF-268 it was 2.84 µM (inactive); in the test on SK-MEL-28 it was 1.76 µM (inactive); with SNB-75 it was 2.11 µM (inactive). The GI50 was 0.248 µM (active) with SR; 6.07 µM (inactive) in the test with TK-10; 2.38 µM (inactive) in the test on UACC-257; 1.79 µM (inactive) in the test with UACC-62; 1.93 µM (inactive) in the test on UO-31.

On to `c1ccc(SC(CCCCC(Sc2ccccc2)Sc2ccccc2)Sc2ccccc2)cc1`, for which the GI50 with A498 was > 100 µM (inactive); in the test with A549, > 100 µM (inactive); in the test on HCT-15, more than 100 µM; in the test with HL-60 it was > 100 µM (inactive); with KM-20L2, > 100 µM (inactive); in the test on M14 it was > 100 µM (inactive). Also, the GI50 with OVCAR-3, with RPMI-8226, with SF-268, in the test on SF-539, in the test on SK-MEL-28 and in the test on SNB-75 was > 100 µM (inactive) each time. The GI50 with SR, with TK-10, with UACC-257, in the test with UACC-62 and in the test on UO-31 was > 100 µM (inactive) in each case.

For `CO[C@@H]1C=C[C@@]23c4cc5c(cc4C(=O)O[C@H]2CN(C)[C@H]3C1)OCO5`, the GI50 in the test on A498, in the test on A549, with HL-60, in the test with IGROV-1, in the test on KM-20L2 and in the test with M14 was > 100 µM (inactive) throughout. In addition, the GI50 in the test on OVCAR-3 was > 100 µM (inactive); in the test with RPMI-8226, > 100 µM (inactive); in the test with SF-268, > 100 µM (inactive); in the test with SF-539, > 100 µM (inactive); with SK-MEL-28, > 100 µM (inactive); in the test with SNB-75, 81.7 µM (inactive). The GI50 in the test on SR, in the test on TK-10, in the test on UACC-257, in the test on UACC-62 and with UO-31 was > 100 µM (inactive) each time.

Consider `CC1(C(=O)O)CCC[C@@]2(C)C1CC[C@@]1(C)c3cocc3CCC21` (some centres undefined), for which the GI50 with A498 was > 100 µM (inactive); in the test with A549, 70.8 µM (inactive); in the test with HCT-15, more than 100 µM; in the test with HL-60 it was > 100 µM (inactive); in the test on IGROV-1, > 100 µM (inactive); in the test on KM-20L2, > 100 µM (inactive). Besides, the GI50 in the test with M14, in the test with OVCAR-3, in the test with RPMI-8226, in the test with SF-268, in the test on SF-539 and in the test on SK-MEL-28 was > 100 µM (inactive) in each case. The GI50 with SNB-75, in the test with SR, in the test on TK-10, in the test on UACC-257, in the test with UACC-62 and in the test with UO-31 was > 100 µM (inactive) each time.

Turning to `Nc1nc[n+](Cc2ccccc2)c2ncn(Cc3ccccc3)c12`, the GI50 in the test with A498 is 55.1 µM (inactive); with A549 it was > 100 µM (inactive); in the test with HCT-15, more than 100 µM; in the test on HL-60 it was 32.3 µM (inactive); with IGROV-1, > 100 µM (inactive); with KM-20L2 it was 55.2 µM (inactive). In addition, the GI50 is 23.7 µM (inactive) with M14; 38.6 µM (inactive) in the test with OVCAR-3; > 100 µM (inactive) with SF-268; > 100 µM (inactive) in the test with SF-539; > 100 µM (inactive) in the test on SK-MEL-28; 34.9 µM (inactive) in the test with SNB-75. In addition, the GI50 in the test on SR was 35.3 µM (inactive); in the test with TK-10, 28.4 µM (inactive); in the test with UACC-257, 63.8 µM (inactive); with UACC-62, 32.4 µM (inactive); with UO-31 it was 39.3 µM (inactive).

`O=[N+]([O-])c1ccc(C2CC(c3ccccc3Cl)=Nc3ccccc3S2)cc1` (centres undefined): the GI50 with A498 is 1.87 µM (inactive); with A549, 5.69 µM (inactive); in the test with HCT-15, 5.35 µM; with HL-60, 2.01 µM (inactive); in the test on IGROV-1 it was 7.23 µM (inactive); with KM-20L2 it was 4.74 µM (inactive). In addition, the GI50 is 12.1 µM (inactive) in the test on M14; 8.79 µM (inactive) in the test on OVCAR-3; 1.66 µM (inactive) in the test on RPMI-8226; 4.15 µM (inactive) in the test with SF-268; 6.65 µM (inactive) with SF-539; 8.34 µM (inactive) in the test with SK-MEL-28. In addition, the GI50 in the test on SNB-75 is 4.21 µM (inactive); in the test on SR it was 2.01 µM (inactive); in the test with TK-10 it was 18.8 µM (inactive); in the test with UACC-257, 12 µM (inactive); with UACC-62, 3.99 µM (inactive); with UO-31, 4.88 µM (inactive).

Take `COc1ccccc1OCC(COC(=O)Nc1ccc(C)cc1)OC(=O)Nc1ccc(C)cc1` (centres undefined): the GI50 with A498 is > 100 µM (inactive); with A549 it was 57.1 µM (inactive); in the test on HCT-15, 15.8 µM; in the test with HL-60, 15 µM (inactive); in the test with IGROV-1, 26 µM (inactive); with KM-20L2, 23.1 µM (inactive). Also, the GI50 with M14 is 19.2 µM (inactive); in the test on OVCAR-3, 17.3 µM (inactive); in the test on RPMI-8226, 16.3 µM (inactive); in the test with SF-268, 19.5 µM (inactive); in the test on SF-539, 19.1 µM (inactive); in the test on SK-MEL-28, 23.7 µM (inactive). Besides, the GI50 in the test with SNB-75 was 23 µM (inactive); in the test with SR it was 22.4 µM (inactive); in the test with TK-10 it was 18.4 µM (inactive); with UACC-257 it was 19.3 µM (inactive); in the test with UACC-62, 15.3 µM (inactive); in the test with UO-31 it was 17.2 µM (inactive).

Take `O=C1N=C2Sc3ccc4ccccc4c3N2C1=O`: the GI50 is 19.6 µM (inactive) with A549; 24.2 µM in the test on HCT-15; 43.6 µM (inactive) with HL-60; 19.1 µM (inactive) in the test on IGROV-1; 25.4 µM (inactive) in the test with KM-20L2; 26.1 µM (inactive) with M14. The GI50 in the test on OVCAR-3 is 18 µM (inactive); in the test with RPMI-8226, > 100 µM (inactive); in the test on SF-268, 24.7 µM (inactive); in the test on SF-539 it was 18.8 µM (inactive); with SK-MEL-28 it was 27 µM (inactive); in the test with SNB-75, 23.6 µM (inactive). In addition, the GI50 in the test on SR was > 100 µM (inactive); in the test on TK-10, 34.4 µM (inactive); in the test with UACC-257 it was 28.1 µM (inactive); in the test with UACC-62, 40.5 µM (inactive); with UO-31 it was 16 µM (inactive).

Consider `C[N+](C)(C)CC(=O)N/N=C(/Cc1nc2ccc(Cl)cc2nc1O)C1=NS(=O)(=O)c2cc(S(N)(=O)=O)c(Cl)cc2N1`, for which the GI50 in the test on A498, with A549, with HL-60, in the test on IGROV-1, in the test with KM-20L2 and in the test with OVCAR-3 was > 100 µM (inactive) each time. Also, the GI50 in the test with RPMI-8226, in the test with SF-268, in the test on SF-539, with SK-MEL-28, in the test with SR and in the test on TK-10 was > 100 µM (inactive) throughout. Moreover, the GI50 in the test on UACC-257, in the test on UACC-62 and in the test on UO-31 was > 100 µM (inactive) throughout.

These data come from ChEMBL document CHEMBL1201862, “PubChem BioAssay data set” (2004).
